Counter-ions that a name gives are not always drawn.

The IC50 is the concentration needed to halve the response being measured.

Common to all, as to type: biochemical
Test [1] has as its target T1, CYP3A4 (Homo sapiens, UniProt P08684).
T1 construct: 0.1 mg/mL human liver microsomes; from tissue; host or cells: human liver microsomes
As to the kind of experiment: IC50 against CYP3A4 by inhibition of testosterone metabolism in human liver microsomes. Particulars: 0.1 mg/mL human liver microsomes, 25 μM testosterone, 1 mM NADPH, 6-β-OH-testosterone production, eight minutes; read-out: IC50, μM (HLM, testosterone). In outline:
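Testosterone used as substrate, incubated for eight minutes. 6-β-OH-testosterone formation quantified by LC-MS/MS (MRM) as peak area ratio to internal standard against a metabolite standard curve. IC50 derived from inhibition of this metabolism.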
A general note: Liver microsomes are a subcellular fraction often used to study metabolism.

Test [2] has as its target T2, recombinant CYP3A4-b5 enzyme (Baculosomes®) (Homo sapiens, UniProt P08684).
T2 construct: purchased Invitrogen (Carlsbad, Calif.)
As to the kind of experiment: Kiapp against recombinant CYP3A4 enzyme (Baculosomes), BFC substrate. Conditions: recombinant CYP3A4-b5 (Invitrogen), 5 uM BFC, 200 uM NADPH, pre-incubation at least 30 minutes, pH 7.0, room temperature. In outline: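 Recombinant CYP3A4-b5 Baculosomes were run in 100 mM sodium phosphate pH 7.0 with 5 mM TCEP and 2% DMF at room temperature, with ~30 min pre-incubation. The reaction was started with NADPH (200 uM) and BFC (5 uM), both final. Kiapp came from initial fluorescence velocities over the first 5 min across inhibitor concentrations.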

The target in test [3] is T3, recombinant CYP3A4+b5 enzyme (Supersomes®) (Homo sapiens, UniProt P08684).
T3 construct: purchased BD Biosciences (Woburn, Mass.)
T3 sequence (P08684 2-503 limits assumed): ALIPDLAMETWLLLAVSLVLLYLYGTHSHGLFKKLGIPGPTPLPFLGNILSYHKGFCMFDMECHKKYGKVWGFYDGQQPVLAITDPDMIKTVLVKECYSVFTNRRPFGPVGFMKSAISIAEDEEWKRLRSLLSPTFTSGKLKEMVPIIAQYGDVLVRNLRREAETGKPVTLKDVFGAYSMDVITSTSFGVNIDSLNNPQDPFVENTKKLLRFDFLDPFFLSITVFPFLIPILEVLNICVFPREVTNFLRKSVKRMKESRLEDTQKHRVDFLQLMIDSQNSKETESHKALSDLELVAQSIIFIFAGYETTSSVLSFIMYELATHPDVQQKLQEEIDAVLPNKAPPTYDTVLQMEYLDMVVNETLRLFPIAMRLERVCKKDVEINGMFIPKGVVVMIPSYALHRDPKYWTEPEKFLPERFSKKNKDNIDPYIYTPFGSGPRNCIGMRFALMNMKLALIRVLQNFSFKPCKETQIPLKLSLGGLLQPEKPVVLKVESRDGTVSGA
The test can be described thus: Kiapp against recombinant CYP3A4 enzyme (Supersomes), BFC substrate. Particulars: recombinant CYP3A4+b5 (BD Biosciences), 5 uM BFC, 200 uM NADPH, pre-incubation at least 30 minutes, pH 7.0, room temperature. The protocol:
1. Determination of Compound Kiapp
A determination of the Kiapp of the compounds of the invention against recombinant CYP3A4 enzyme was performed as follows. The assay was performed in a 100 mM sodium phosphate buffer pH 7.0, 5 mM TCEP and containing 2% dimethylformamide (final concentration) upon addition of substrate and inhibitor. A typical reaction for the determination of Kiapp values was carried at room temperature in a solid black Costar u-bottom 96-well polypropylene plate. In each well, recombinant CYP3A4 enzyme (5.5 nM or 8 nM, final concentration depending on the commercial source of the enzyme) was pre-incubated in the presence of the inhibitor for at least 30 minutes in the assay buffer. When pre-incubation was completed (˜30 min), the reaction was initiated by adding NADPH (200 uM, final concentration), and 7-benzyloxy-4-(trifluoromethyl)-coumarin (BFC) (5 uM, final concentration). The oxidation of the coumarin substrate was recorded by a 96-well plate reader POLARstar (BMG LABTECH, Offenburg, Germany).
The initial reaction velocities were measured during the first 5 min of the reaction when the release of the fluorescent product is linear with time, in the absence and in the presence of various concentrations of inhibitors. For non-partial & partial inhibitors, the Kiapp values were determined by using the equation for tight-binding inhibitor developed by Morrison, J F (Morrison J F. Biochim Biophys Acta. 1969, 185: 269-86) and by Szedlaseck S E et al. (Szedlascek, S. E., Ostafe, V., Serban, M., and Vlad, M. O. Biochem. J. 1988, 254:311-312), respectively.
The fluorescent substrate BFC was purchased from Sigma (St Louis, Mo.). Two commercial sources of recombinant enzymes were used in this study: recombinant CYP3A4-b5 enzyme (Baculosomes®) was purchased from Invitrogen (Carlsbad, Calif.) and the recombinant CYP3A4+b5 enzyme (Supersomes®) was purchased from BD Biosciences (Woburn, Mass.).

The target in test [4] is T1, CYP3A4. The test can be described thus: IC50 against CYP3A4 by inhibition of midazolam metabolism in human liver microsomes. Particulars: 0.1 mg/mL human liver microsomes, 2 μM midazolam, 1 mM NADPH, 1-hydroxymidazolam production, eight minutes; read-out: IC50, μM (HLM, midazolam). In a few lines:
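Human liver microsomes (0.1 mg/mL) incubated 8 min with 2 μM midazolam and 1 mM NADPH in 100 mM potassium phosphate, pH 7.4. 1-Hydroxymidazolam quantified by LC-MS/MS (MRM) as peak area ratio to internal standard against a metabolite standard curve.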

T1 sequence (P08684 whole entry): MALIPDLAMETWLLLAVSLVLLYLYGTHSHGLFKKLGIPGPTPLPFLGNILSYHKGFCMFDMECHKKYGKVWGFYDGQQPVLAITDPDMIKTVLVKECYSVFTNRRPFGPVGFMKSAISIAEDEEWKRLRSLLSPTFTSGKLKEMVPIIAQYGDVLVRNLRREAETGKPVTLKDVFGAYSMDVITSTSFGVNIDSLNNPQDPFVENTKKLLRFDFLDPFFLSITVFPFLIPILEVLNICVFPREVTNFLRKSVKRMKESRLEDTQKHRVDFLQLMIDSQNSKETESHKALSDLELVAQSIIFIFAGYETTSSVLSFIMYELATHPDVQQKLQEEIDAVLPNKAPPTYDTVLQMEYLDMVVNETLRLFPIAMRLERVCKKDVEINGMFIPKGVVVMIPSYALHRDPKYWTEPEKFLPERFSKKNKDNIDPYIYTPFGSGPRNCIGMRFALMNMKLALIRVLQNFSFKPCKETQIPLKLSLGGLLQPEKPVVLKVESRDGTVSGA
T2 sequence (P08684 whole entry): as above

As to `Fc1ccc(Cc2cc(-c3ccncc3)n[nH]2)cc1` [Example 1, 4-[5-(4-fluorobenzyl)-1H-pyrazol-3-yl]pyridine], the IC50 in test [1] was < 0.022 µM; in test [4] it was 0.077 µM. Further, the Ki in test [2] was 0.0557 µM; in test [3], 0.0064 µM.
Turning to `O=C(Cn1nc(-c2ccncc2)cc1Cc1ccc(F)cc1)N1CCCC(N2CCOCC2)CC1` (stereo not drawn) [Example 4, 1-{[5-(4-fluorobenzyl)-3-pyridin-4-yl-1H-pyrazol-1-yl]acetyl}-4-morpholin-4-ylazepane, maleic acid salt], the figures for the IC50 in test [1] and in test [4] were 0.057 µM and 0.023 µM, respectively. The figures for the Ki in test [2] and in test [3] were 0.0211 µM and 0.0061 µM, respectively.
On the same counts, the results for `CS(=O)(=O)C1CCN(C(=O)Cn2nc(-c3ccncc3)cc2Cc2ccc(F)cc2)CC1` [Example 6, 4-(5-(4-fluorobenzyl)-1-{2-[4-(methylsulfonyl)piperidin-1-yl]-2-oxoethyl}-1H-pyrazol-3-yl)pyridine] are 0.024 µM, 0.0218 µM, 0.0237 µM and 0.0118 µM.
Regarding `CNC1CCN(C(=O)Cn2nc(-c3ccncc3)cc2Cc2ccc(F)cc2)CC1` [Example 7, 1-{[5-(4-fluorobenzyl)-3-pyridin-4-yl-1H-pyrazol-1-yl]acetyl}-N-methylpiperidin-4-amine], the IC50 in test [1] came to 0.105 µM; in test [4] it was 0.073 µM. For the same compound, the Ki in test [2] was found to be 0.196 µM; in test [3] it was 0.033 µM.
As to `CC(C)NC(=O)N(C)C1CCN(C(=O)Cn2nc(-c3ccncc3)cc2Cc2ccc(F)cc2)CC1` [Example 16, N-(1-{[5-(4-fluorobenzyl)-3-pyridin-4-yl-1H-pyrazol-1-yl]acetyl}piperidin-4-yl)-N′-isopropyl-N-methylurea], the half-maximal inhibitory concentration (IC50) in test [1] worked out at 0.016 µM; in test [4], 0.00707 µM. Further, the Ki amounted to 0.0369 µM in test [2] and 0.0139 µM in test [3].
In the same order, the values of `CC(C)NC(=O)NC1CCN(C(=O)Cn2nc(-c3ccncc3)cc2Cc2ccc(F)cc2)CC1` [Example 17, N-(1-{[5-(4-fluorobenzyl)-3-pyridin-4-yl-1H-pyrazol-1-yl]acetyl}piperidin-4-yl)-N′-isopropylurea] are 0.035 µM, 0.0115 µM, 0.0667 µM and 0.0231 µM.
In the case of `Cc1noc(CNC(=O)Cn2nc(-c3ccncc3)cc2Cc2ccc(F)cc2)n1` [Example 90, 2-[5-(4-fluorobenzyl)-3-pyridin-4-yl-1H-pyrazol-1-yl]-N-[(3-methyl-1,2,4-oxadiazol-5-yl)methyl]acetamide], the results for the IC50 in test [1] and in test [4] were 0.012 µM and 0.019 µM, respectively. Moreover, the Ki in test [2] is 0.0773 µM.
As to `Cc1noc(CCNC(=O)Cn2nc(-c3ccncc3)cc2Cc2ccc(F)cc2)n1` [Example 91, 2-[5-(4-fluorobenzyl)-3-pyridin-4-yl-1H-pyrazol-1-yl]-N-[2-(3-methyl-1,2,4-oxadiazol-5-yl)ethyl]acetamide], the results for the IC50 in test [1] and in test [4] were 0.018 µM and 0.019 µM, respectively. Besides, in test [2], the Ki amounted to 0.112 µM.
For `CCCN(C)C1(C(N)=O)CCN(C(=O)Cn2nc(-c3ccncc3)cc2Cc2ccc(F)cc2)CC1` [Example 92, 1-{[5-(4-fluorobenzyl)-3-pyridin-4-yl-1H-pyrazol-1-yl]acetyl}-4-[methyl(propyl)amino] piperidine-4-carboxamide], the IC50 is 0.015 µM in test [1] and 0.007 µM in test [4]. The Ki in test [2] was determined as 0.0241 µM.
For the compound `O=C(Cn1nc(-c2ccncc2)cc1Cc1ccc(F)cc1)N[C@H]1CC[C@H](O)CC1` [Example 96, 2-[5-(4-fluorobenzyl)-3-pyridin-4-yl-1H-pyrazol-1-yl]-N-(trans-4-hydroxycyclohexyl)-acetamide], the IC50 was < 0.0225 µM in test [1] and < 0.013 µM in test [4]. For the same compound, the Ki in test [2] was 0.0227 µM.
In the same order, the values of `O=C(Cn1nc(-c2ccncn2)cc1Cc1ccc(F)cc1)N1CCN(c2ccccn2)CC1` [Example 97, 4-{5-(4-fluorobenzyl)-1-[2-oxo-2-(4-pyridin-2-ylpiperazin-1-yl)ethyl]-1H-pyrazol-3-yl}pyrimidine] are < 0.012 µM, 0.045 µM and 0.232 µM.
With `O=C(Cn1nc(-c2ccncc2)cc1Cc1ccc(F)cc1)N1CC(O)C1` [Example 98, 1-{[5-(4-fluorobenzyl)-3-pyridin-4-yl-1H-pyrazol-1-yl]acetyl}azetidin-3-ol], the concentration for half-maximal inhibition (IC50) in test [1] is 0.082 µM; in test [4] it was 0.108 µM. The Ki in test [2] was found to be 0.378 µM.
On the same counts, the results for `CCC(=O)NC1CCN(C(=O)Cn2nc(-c3ccncc3)cc2Cc2ccc(F)cc2)CC1` [Example 101, N-(1-(2-[5-(4-fluorobenzyl)-3-pyridin-4-yl-1H-pyrazol-1-yl]acetyl}piperidin-4-yl)propanamide] are 0.035 µM, 0.0105 µM and 0.158 µM.
`CCS(=O)(=O)NC1CCN(C(=O)Cn2nc(-c3ccncc3)cc2Cc2ccc(F)cc2)CC1` [Example 102, N-(1-(2-[5-(4-fluorobenzyl)-3-pyridin-4-yl-1H-pyrazol-1-yl]acetyl}piperidin-4-yl)ethanesulfonamide]: the figures for the half-inhibitory concentration (IC50) in test [1] and in test [4] were 0.023 µM and 0.012 µM, respectively. In addition, in test [2], the Ki came out at 0.107 µM.
For the compound `O=C(Cn1nc(-c2ccncc2)cc1Cc1ccc(F)cc1)N1CC[C@@H](N2CCOCC2)C1` [Example 103], the values for the IC50 in test [1] and in test [4] were 0.068 µM and 0.025 µM, respectively. Besides, the Ki in test [2] turned out to be 0.106 µM.
Regarding `CC(C)NC(=O)Cn1nc(-c2c[nH]cn2)cc1Cc1ccc(F)cc1` [Example 111, 2-[5-(4-fluorobenzyl)-3-(1H-imidazol-4-yl)-1H-pyrazol-1-yl]-N-isopropylacetamide], the 50% inhibitory concentration (IC50) was determined as 0.714 µM in test [1] and 0.223 µM in test [4]. In addition, the Ki in test [2] is 0.838 µM.
`CC(C)OC(=O)N(C)C1CCN(C(=O)Cn2nc(-c3ccncc3)cc2Cc2ccc(F)cc2)CC1` [Example 112, isopropyl (1-{[5-(4-fluorobenzyl)-3-pyridin-4-yl-1H-pyrazol-1-yl]acetyl}piperidin-4-yl)methylcarbamate]: the half-inhibitory concentration (IC50) in test [1] turned out to be 0.009 µM; in test [4] it was 0.006 µM. Further, the Ki in test [2] is 0.002 µM.
As to `CCOC(=O)N(C)C1CCN(C(=O)Cn2nc(-c3ccncc3)cc2Cc2ccc(F)cc2)CC1` [Example 113], the IC50 came to 0.011 µM in test [1] and 0.009 µM in test [4]. For the same compound, the Ki in test [2] stood at 0.00676 µM.
For the compound `CCNC(=O)N(C)C1CCN(C(=O)Cn2nc(-c3ccncc3)cc2Cc2ccc(F)cc2)CC1` [Example 115, 3-ethyl-1-(1-{[5-(4-fluorobenzyl)-3-pyridin-4-yl-1H-pyrazol-1-yl]acetyl}piperidin-4-yl)-1-methylurea], the IC50 in test [1] turned out to be 0.015 µM; in test [4], 0.004 µM. The Ki in test [2] worked out at 0.0338 µM.
As for `CC(C)OC(=O)NC1CCN(C(=O)Cn2nc(-c3ccncc3)cc2Cc2ccc(F)cc2)CC1` [Example 116, isopropyl (1-{[5-(4-fluorobenzyl)-3-pyridin-4-yl-1H-pyrazol-1-yl]acetyl}piperidin-4-yl)carbamate], the 50% inhibitory concentration (IC50) in test [1] is 0.008 µM; in test [4] it was < 0.003 µM. In addition, the Ki in test [2] amounted to 0.0141 µM.
Regarding `CNC(=O)N(C)C1CCN(C(=O)Cn2nc(-c3ccncc3)cc2Cc2ccc(F)cc2)CC1` [Example 117, 1-(1-{[5-(4-fluorobenzyl)-3-pyridin-4-yl-1H-pyrazol-1-yl]acetyl}piperidin-4-yl)-1,3-dimethylurea], the IC50 in test [1] was 0.018 µM; in test [4] it was 0.011 µM. For the same compound, the Ki in test [2] turned out to be 0.0702 µM.

The values above are taken from patent US7919488B2, “Therapeutic compounds” (Pfizer Inc., priority 2006, dated 2011).
